Test results published in publication PMC8426299, “Effect of severe renal impairment on the pharmacokinetics of brigatinib” (Investigational New Drugs, 2021).
Where two headings read alike, the source gives them in different places.

How the values were obtained:
[1] = Plasma protein binding of brigatinib by rapid equilibrium dialysis (RED) of participants' plasma samples; format: in vitro ADME, human; settings: human, plasma samples of dosed participants, averaged over 2, 8, 24 h postdose, read-out: overall mean (SD) fraction unbound (converted)
Method: (§1) Blood samples were collected at 2, 8, and 24 h after brigatinib administration to determine the plasma protein binding of brigatinib.
(§2) Free brigatinib in plasma samples was separated from protein-bound brigatinib by dialyzing the samples across a semipermeable dialysis membrane (8000-Da mass cutoff) using Thermo Scientific™ Single-Use RED (rapid equilibrium dialysis) Plates. For each RED dialysis unit, an aliquot (200 µL) of plasma was transferred into the donor chamber and an aliquot (350 µL) of warm (37 °C) phosphate buffered saline (PBS) was transferred into the receiver chamber of the dialysis unit. The RED devices were incubated at 37 °C with gentle shaking (250 rpm on a rotator shaker) for six hours. A 125-µL aliquot of plasma and 150-µL aliquot of PBS were removed from the dialysis unit and matrix-matched to a final composition of 50:50 (v:v) plasma:PBS, in Rain-X® treated 96-well plates. The matrix-matched samples were immediately frozen at − 80 °C. The protein binding assay and sample analysis were conducted at Charles River Laboratories, Inc. (Worcester, MA, USA). Samples were analyzed for brigatinib concentrations using liquid chromatography with tandem mass spectrometry (LC-MS/MS) methods that have been previously reported using a dual-range assay with a lower limit of quantitation of 0.100 ng/mL and an upper limit of quantitation of 500 ng/mL.
(§3) Individual participant plasma concentration-time profiles were analyzed via noncompartmental analysis methods using Phoenix WinNonlin (version 6.4) to estimate PK parameters. Plasma PK parameters calculated for brigatinib included maximum observed plasma concentration (Cmax); Tmax; area under the plasma concentration-time curve from time zero to the time of the last measurable concentration (AUC0 − last); AUC from time zero to infinity (AUC0−∞); terminal elimination half-life (t1/2); apparent oral clearance (CL/F); and apparent volume of distribution (V/F). The fraction of unbound brigatinib in plasma was determined using the following formula: % free (unbound) = [free brigatinib concentration measured in buffer after RED]/[total concentration measured in plasma] X 100. Unbound brigatinib plasma PK parameters (except unbound CL/F and V/F, which were calculated as total CL/F or total V/F divided by the overall mean fraction unbound) were calculated using the following formula: unbound PK parameter = (parameter based on total concentrations) x (individual participant’s overall mean fraction unbound value). Urinary PK parameters included the amount of brigatinib excreted from time zero to time t (Ae0 − t,), fraction of the dose excreted (%) from time zero to time t (Fe0 − t), and renal clearance (CLR).

plasma protein = test: as above; format: in vitro ADME, human
Method: as §1, §2, §3

[2] = Urinary pharmacokinetics after single oral dose of brigatinib 90 mg; format: in vivo, human; settings: for CL renal: human, oral, 90 mg; for CL renal / Ae0–168, Range / Ae0–168, amount of brigatinib excreted from time zero to 168 hours, mean (SD) / Fe0–168, Range: urine
Method: Blood samples were collected before brigatinib administration (predose) and at 0.5, 1, 1.5, 2, 2.5, 3, 4, 6, 8, 12, 24, 36, 48, 60, 72, 96, 120, 144, and 168 h after brigatinib administration to determine plasma brigatinib concentrations. Urine was collected predose and during intervals (0–8, 8–12, 12–24, 24–48, 48–72, 72–96, 96–120, and 120–168 h) after brigatinib administration to determine urine brigatinib concentrations. Urine samples were subsequently diluted 50:50 (v:v) urine:isopropanol at the clinical site.
Plasma and urine samples were analyzed by Charles River Laboratories, Inc. (Worcester, MA, USA) by LC-MS/MS, as previously reported. Plasma samples were analyzed using a dual-range assay with a lower limit of quantitation of 0.100 ng/mL and an upper limit of 2500 ng/mL [11]. Urine samples were analyzed using a single-range assay with a lower limit of quantitation of 25.0 ng/mL and upper limit of 2500 ng/mL [11].
as §3

[3] = system: ALK-positive non–small cell lung cancer (NSCLC); design: method as in PMID 31756496; settings: cited from earlier work
ALK + NSCLC = system: ALK + NSCLC; design: method as in PMID 32780660; settings: cited from earlier work
[4] = design: method as in earlier work; settings: cited from earlier work
[5] = system: cytochrome P450 (CYP) 3A4; design: method as in ref 5, 11 = [5]; 5. Alunbrig brigatinib [summary of product characteristics] (2020) Takeda Pharmaceutical Company Limited. https://www.alunbrig.com/assets/pi.pdf . Accessed 9 Mar 2021 || [11]; PMID 31287236; doi:10.1002/cpdd.723; 11. Tugnait M Gupta N Hanley MJ Sonnichsen D Kerstein D Dorer DJ Venkatakrishnan K Narasimhan N Effects of strong CYP2C8 or CYP3A inhibition and CYP3A induction on the pharmacokinetics of brigatinib; settings: in vitro; cited from earlier work
2C8 = system: 2C8; design: method as in ref 5, 11 = [5]; 5. Alunbrig brigatinib [summary of product characteristics] (2020) Takeda Pharmaceutical Company Limited. https://www.alunbrig.com/assets/pi.pdf . Accessed 9 Mar 2021 || [11]; PMID 31287236; doi:10.1002/cpdd.723; 11. Tugnait M Gupta N Hanley MJ Sonnichsen D Kerstein D Dorer DJ Venkatakrishnan K Narasimhan N Effects of strong CYP2C8 or CYP3A inhibition and CYP3A induction on the pharmacokinetics of brigatinib; settings: in vitro; cited from earlier work
[6] = design: method as in PMID 30570839; settings: cited from earlier work
[7] = severe renal impairment vs normal renal function
[8] = NSCLC progressed on crizotinib, 180 mg qd with seven-day lead-in at 90 mg, median follow-up 24 months
[9] = patients with baseline brain metastases
[10] = brigatinib vs crizotinib, P < 0.0001

## COc1cc(N2CCC(N3CCN(C)CC3)CC2)ccc1Nc1ncc(Cl)c(Nc2ccccc2P(C)(C)=O)n1 [brigatinib]
[1]; healthy volunteers with normal renal function
  fraction unbound at 6 h: 0.09
[1]; patients with severe renal impairment
  fraction unbound at 6 h: 0.08
Plasma protein; mean fraction unbound at 2, 8, 24 h postdose, both renal function groups
  concentration dependence of protein binding: not concentration-dependent
Plasma protein; [7]
  effect of severe renal impairment on brigatinib plasma protein binding: no effect
[2]; Normal Renal Function (n=8), read-out: CLR, Range
  CL renal: 27.5 to 63.7 mL/min
[2]; Normal Renal Function (n=8), read-out: CLR, renal clearance, mean (SD)
  CL renal: 41.5 mL/min
[2]; Severe Renal Impairment (n=8), read-out: CLR, Range
  CL renal: 5.4 to 13.4 mL/min
[2]; Severe Renal Impairment (n=8), read-out: CLR, renal clearance, mean (SD)
  CL renal: 9.17 mL/min
[2]; in vivo
  renal clearance as share of overall clearance of brigatinib: approximately 25%
[2]; severe renal impairment compared with normal renal function
  renal clearance of unbound brigatinib, fold lower: approximately five-fold
[2]; [7]
  reduction of fraction of dose excreted in urine 0 to 168 h: approximately 50%
[2]; severe renal impairment vs normal renal function, derived from renal clearance share
  nonrenal clearance, percent lower: approximately 50%
[2]; Normal Renal Function (n=8)
  Ae0–168, Range: 11.58 to 21.77 mg
  Ae0–168, amount of brigatinib excreted from time zero to 168 hours, mean (SD): 16.90 (3.57) mg
  Fe0–168, Range: 12.9–24.2%
[2]; Severe Renal Impairment (n=7)
  Ae0–168, Range: 3.92 to 14.36 mg
  Ae0–168, amount of brigatinib excreted from time zero to 168 hours, mean (SD): 7.58 (3.77) mg
  Fe0–168, Range: 4.36–16.0%
[3]; [8]
  independent review committee-assessed confirmed objective response rate (ORR): 56%
  median progression-free survival (PFS): 16.7 months
[3]; [9]
  confirmed intracranial ORR: 67%
  median intracranial PFS: 18.4 months
ALK + NSCLC; ALK inhibitor-naive patients
  24-month PFS, blinded independent review committee-assessed: 48%
  24-month PFS, investigator-assessed: 56%
ALK + NSCLC; [10]
  PFS hazard ratio [95 % CI], blinded independent review committee-assessed: 0.49
  PFS hazard ratio [95 % CI], investigator-assessed: 0.43 [0.31–0.61]
[4]
  administered dose recovered in feces: 65%
  administered dose recovered in urine: 25%
  unchanged brigatinib as share of total radioactivity in feces: 41%
  unchanged brigatinib as share of total radioactivity in urine: 86%
[5]
  contribution of CYP3A4 to metabolism: primarily metabolized
2C8
  contribution of 2C8 to metabolism: minor contribution
[6]
  effect of a high-fat meal on total exposure (AUC): no effect
